Results taken from article PMC9404989, “Design and Evaluation of Short Bovine Lactoferrin-Derived Antimicrobial Peptides against Multidrug-Resistant Enterococcus faecium” (Antibiotics, 2022).
In brackets after ≈: the same amount, converted by molar mass. Like-named read-outs stand apart in the source and are kept apart here. No end group written: not given here.

How the values were obtained:
E. faecium strain C68 [1] = experiment: microbe, parasite or virus in culture; type: cell-based, Enterococcus faecium; conditions: for MIC: Enterococcus faecium, C68; for MIC + CaCl2 (2.5 mM) / MIC + MgSO4 (1 mM) / MIC + NaCl (150 mM) / MIC + ZnSO4 (8 µM): strain C68, 18 h
Experimental: (§1) To determine the MICs of peptides, we used the broth microdilution method described by the Clinical and Laboratory Standards Institute. We made serial dilutions of 10× concentration (10 µL) for each peptide in duplicates in 96-well plates (Cat No. 3595, Corning, New York, NY, USA). We added 90 µL of logarithmic-phase bacteria at 5 × 10^5 CFU/mL (in BHI media) to the peptides and then incubated the plates at 37 °C for 18 h. We measured the OD600 absorbance readings using the Spectra Max i3x spectrophotometer (Molecular Devices, San Jose, CA, USA) and determined the MIC as the peptide concentration that inhibits the growth of bacteria.
To investigate the activity of peptides in various salt concentrations, we included physiologically relevant salts in the BHI medium.

E. faecium D14 = experiment: microbe, parasite or virus in culture; type: cell-based, Enterococcus faecium
Experimental: as §1

E. faecium D25 = experiment: microbe, parasite or virus in culture; type: cell-based, Enterococcus faecium
Experimental: as §1

E. faecium E007 = experiment: microbe, parasite or virus in culture; type: cell-based, Enterococcus faecium; conditions: for MIC: Enterococcus faecium; for MIC E007: E007, 18 h
Experimental: as §1

E. faecium D24 = experiment: microbe, parasite or virus in culture; type: cell-based, Enterococcus faecium
Experimental: as §1

E. faecium D29 = experiment: microbe, parasite or virus in culture; type: cell-based, Enterococcus faecium
Experimental: as §1

E. faecium strain C68 [2] = experiment: microbe, parasite or virus in culture; type: cell-based, Enterococcus faecium
Experimental: as §1

E. faecium WC176 = experiment: organism not typed; type: cell-based, Enterococcus faecium; conditions: for MIC: read-out: MIC WC176; for MIC WC176: WC176, 18 h
Experimental: as §1

[3] = HPLC retention time on C18 reverse-phase column; type: physicochemical
Text: Table 1 Physical parameters and the minimal inhibitory concentration (µg/mL) of designed peptides against E. faecium. | column: rT ^f (min)

E. faecalis MMH594 = experiment: microbe, parasite or virus in culture; type: cell-based; conditions: for MIC E. faecalis MMH594: MMH594, 18 h
Experimental: as §1

E. faecalis V583 = experiment: microbe, parasite or virus in culture; type: cell-based; conditions: for MIC E. faecalis V583: V583, 18 h
Experimental: as §1

S. aureus MW2 = experiment: microbe, parasite or virus in culture; type: cell-based, Staphylococcus aureus; conditions: for MIC S. aureus MW2: MW2, 18 h
Experimental: as §1

E. faecalis OG1RF = experiment: MIC assay, E. faecalis OG1RF; type: cell-based; conditions: rifampin and fusidic acid resistant
Experimental: as §1

[4] = system: E. faecium strain C68 on porcine skin; experiment: Ex vivo porcine skin infection assay; design: species or system Enterococcus faecium; conditions: exponential cells
Text: We evaluated the efficacy of designed lactoferrin AMPs in an ex vivo porcine skin model previously described with minor modifications. We first cleaned the shaved porcine skin (Fisher Scientific, Hampton, NH, USA) with 70% ethanol and then water, and glued polyethylene tubing (5 mm) (Nalgene VWR 228-0170, Radnor, PA, USA) to the skin samples with cyanoacrylate glue (Fisher Scientific, Hampton, NH, USA). Using disposable razors, we cut each piece of skin glued to the tube and inserted it into a 12-well tissue culture plate (Falcon, Cat No. 353182). We infected each skin with 1 × 10^6 CFU of exponential or persister E. faecium strain C68 cells in a total volume of 10 µL. Following an incubation of 1 h at 37 °C, we treated the skin with 50 µL with 5L and 6L at concentrations of 10× or 1× MIC. After an additional 4 h of incubation at 37 °C, we washed each tubing well with 250 µL of PBS (pH 7.4) containing 0.05% Triton X-100 to remove bacteria. After serially diluting the bacterial sample, we counted their CFUs.

[5] = system: E. faecium strain C68 established biofilms; type: cell-based, Enterococcus faecium
Experimental: We prepared exponential cultures of E. faecium strain C68 (adjusted to 1 × 10^8 CFU/mL) in BHI media (supplemented with 0.2% glucose) from overnight grown cultures. We added 100 µL of the bacterial culture to wells of flat-bottomed 96-well polystyrene microtiter plates (Cat No. 3595, Corning, NY, USA). We then incubated the plates at 37 °C for 24 h in static conditions to allow biofilm formation. After incubation, we carefully pipetted out the media and washed the wells with PBS (Gibco, Waltham, MA, USA) to remove loosely attached planktonic cells. We treated the established biofilms in each well with 10 µL of serially diluted 10× peptide solution, followed by the addition of 90 μL of BHI media (supplemented with 0.2% glucose). The plates were incubated for another 24 h at 37 °C before processing for biomass and live-cell contents. We quantitated the concentration of peptide that disrupts 50% of established biofilms (MBEC50).

[6] = system: E. faecium C68 biofilm formation; experiment: Prevention of E. faecium biofilm formation (XTT, crystal violet); type: cell-based, Enterococcus faecium; conditions: XTT, 24 h, BHI + 0.2% glucose
Experimental: We evaluated the ability of the lactoferrin-derived peptides to inhibit biofilm formation following an established protocol with modifications. In short, we prepared exponential cultures of E. faecium C68 (adjusted to OD600 = 0.01) in BHI media (supplemented with 0.2% glucose) from overnight grown cultures. We added 90 µL of the bacterial culture to 10 µL of serially diluted 10× peptide solution in flat-bottomed 96-well polystyrene microtiter plates (Cat No. 3595, Corning, NY, USA) and then incubated the plates at 37 °C for 24 h. We considered media containing bacteria and water as the positive control, while media with water served as the negative control. After incubation, we carefully pipetted out the media and washed the wells with PBS (Gibco, Waltham, MA, USA) to remove loosely attached planktonic cells. We quantified the biomass by staining the biofilms with crystal violet following an established protocol and quantitated the concentration of peptide that inhibits 50% of biofilm formation (MBIC50). Furthermore, we measured the live cell count of the biofilms using XTT [2,3-bis(2-methyloxy-4-nitro-5-sulfophenyl)-2H-tertazolium-5-carboxanilide] dye (ATCC, Manassas, VA, USA). We calculated the percentage of biofilm growth by assuming that there was 100% biofilm growth in wells with bacteria without peptide treatment.

[7] = system: drug-resistant E. faecium clinical isolates; type: cell-based, Enterococcus faecium; conditions: strains D14, D24, D25, D29, C68 and WC176
Experimental: as §1

[8] = system: E. faecium E007 established biofilms; type: cell-based, Enterococcus faecium; conditions: for concentration killing 50% of live bacteria cells in established biofilms: strain E007, 24 h established biofilms, XTT; for established biomass disrupted: strain E007, at 32 µg/mL

Compound | rT (HPLC retention time) [3] [min] | MIC EF C68 (E. faecium strain C68 [2]; strain C68, 18 h) [µg/mL] | MIC Media Only (E. faecium strain C68 [2]; strain C68, 18 h) [µg/mL] | MIC E. faecalis MMH594 (E. faecalis MMH594) [µg/mL] | MIC E. faecalis V583 (E. faecalis V583) [µg/mL] | MIC S. aureus MW2 (S. aureus MW2) [µg/mL] | MIC E. faecalis OG1RF (E. faecalis OG1RF) [µg/mL] | MIC + CaCl2 (2.5 mM) (E. faecium strain C68 [1]) [µg/mL] | MIC + MgSO4 (1 mM) (E. faecium strain C68 [1]) [µg/mL] | MIC + NaCl (150 mM) (E. faecium strain C68 [1]) [µg/mL] | MIC + ZnSO4 (8 µM) (E. faecium strain C68 [1]) [µg/mL] | further results
CC1(C)S[C@@H]2[C@H](NC(=O)[C@H](N)c3ccccc3)C(=O)N2[C@H]1C(=O)O [Ampicillin, reference compound] | – | – | – | – | – | – | – | – | – | – | – | MIC (E. faecium strain C68 [1]; BHI + 8 µM ZnSO4, read-out: MIC + ZnSO4 (8 µM)): > 32 µg/mL; MIC (E. faecium strain C68 [1]; BHI + 1 mM MgSO4, read-out: MIC + MgSO4 (1 mM)): > 32 µg/mL; MIC (E. faecium strain C68 [1]; BHI + 2.5 mM CaCl2, read-out: MIC + CaCl2 (2.5 mM)): > 32 µg/mL; MIC (E. faecium strain C68 [1]; BHI + 150 mM NaCl, read-out: MIC + NaCl (150 mM)): > 32 µg/mL; MIC (E. faecium D14; Enterococcus faecium, D14; read-out: MIC D14): ≥ 32 µg/mL; MIC (E. faecium D25; Enterococcus faecium, D25; read-out: MIC D25): > 32 µg/mL; MIC (E. faecium E007; E007, tetracycline-resistant strain, read-out: MIC E007): > 32 µg/mL; MIC (E. faecium D24; Enterococcus faecium, D24; read-out: MIC D24): > 32 µg/mL; MIC (E. faecium D29; Enterococcus faecium, D29; read-out: MIC D29): > 32 µg/mL; MIC (E. faecium strain C68 [2]; Enterococcus faecium, C68, 18 h; read-out: MIC EF C68): > 32 µg/mL; MIC (E. faecium strain C68 [2]; Enterococcus faecium, C68; BHI media only, 37 °C, 18 h; read-out: MIC Media Only): > 32 µg/mL; MIC (E. faecium WC176): > 32 µg/mL
RRWLWRL-NH2 [Peptide 2L] | 13.321 | >32 | >32 | > 32 | > 32 | > 32 | > 32 | – | – | – | – | –
RRWQWRLLLL-NH2 [Peptide 1L] | 18.083 | 16 | 16 | > 32 | > 32 | > 32 | > 32 | 32 | 8 | 4 | 4 | –
LRWLWRRRWLWR-NH2 [Peptide 3L] | 16.145 | 16 | 16 | > 32 | > 32 | > 32 | > 32 | >32 | 8 | 16 | 4 | –
RLWLWRRRWLWR-NH2 [Peptide 4L] | 18.377 | 4 | 4 | > 32 | > 32 | > 32 | > 32 | >32 | 8 | 8 | 4 | –
CNC(C)C1CCC(N)C(OC2C(N)CC(N)C(OC3OCC(C)(O)C(NC)C3O)C2O)O1 (stereo not shown) [Gentamicin, reference compound] | – | – | – | – | – | – | – | – | – | – | – | bacterial burden, control antibiotic [4]: ineffective in reducing the bacterial burden
RRWLWRRRWLWL-NH2 [Peptide 8L] | 21.235 | 4 | 4 | > 32 | > 32 | > 32 | > 32 | 16 | 4 | 4 | 2 | MBEC50 (established biomass) ([5]; strain C68 established biofilms, 24 h): 30 µg/mL; MIC D14 (E. faecium D14; D14, 18 h): 16 µg/mL; MIC D25 (E. faecium D25; D25, 18 h): 8 µg/mL; MIC E007 (E. faecium E007): 4 µg/mL; MIC D24 (E. faecium D24; D24, 18 h): 8 µg/mL; MIC D29 (E. faecium D29; D29, 18 h): 32 µg/mL; concentration killing 50% of live bacterial cells during biofilm formation stage [6]: 2.8 µg/mL; MIC range against clinical isolates of E. faecium [7]: 8 to 32 µg/mL; concentration killing 50% of live bacteria cells in established biofilms [8]: > 32 µg/mL; established biomass disrupted [8]: 25–30%; MIC WC176 (E. faecium WC176): 16 µg/mL
CN[C@H](CC(C)C)C(=O)N[C@H]1C(=O)N[C@@H](CC(N)=O)C(=O)N[C@H]2C(=O)N[C@H]3C(=O)N[C@H](C(=O)N[C@H](C(=O)O)c4cc(O)cc(O)c4-c4cc3ccc4O)[C@H](O)c3ccc(c(Cl)c3)Oc3cc2cc(c3O[C@@H]2O[C@H](CO)[C@@H](O)[C@H](O)[C@H]2O[C@H]2C[C@](C)(N)[C@H](O)[C@H](C)O2)Oc2ccc(cc2Cl)[C@H]1O [Vancomycin, reference compound] | – | – | – | – | – | – | – | – | – | – | – | MIC (E. faecium D14; Enterococcus faecium, D14, read-out: MIC D14): 2 µg/mL (≈ 1.38 µM); MIC (E. faecium D25; Enterococcus faecium, D25, read-out: MIC D25): 1 µg/mL (≈ 0.69 µM); MIC (E. faecium E007; E007, read-out: MIC E007): 1 µg/mL (≈ 0.69 µM); MIC (E. faecium D24; Enterococcus faecium, D24, read-out: MIC D24): 1 µg/mL (≈ 0.69 µM); MIC (E. faecium D29; Enterococcus faecium, D29, read-out: MIC D29): 1 µg/mL (≈ 0.69 µM); MIC (E. faecium strain C68 [2]; Enterococcus faecium, C68, 18 h, read-out: MIC EF C68): > 32 µg/mL; MIC (E. faecalis MMH594; Enterococcus faecalis, MMH594, read-out: MIC E. faecalis MMH594): > 32 µg/mL; MIC (E. faecalis V583; Enterococcus faecalis, V583, read-out: MIC E. faecalis V583): > 32 µg/mL; MIC (E. faecium WC176): 16 µg/mL (≈ 11 µM); MIC (S. aureus MW2; Staphylococcus aureus, MRSA, read-out: MIC S. aureus MW2): 1 µg/mL (≈ 0.69 µM); MIC (E. faecalis OG1RF; Enterococcus faecalis, OG1RF): > 32 µg/mL
RRWLWRRLWLWR-NH2 [Peptide 7L] | 16.290 | 4 | 4 | > 32 | > 32 | > 32 | > 32 | 8 | 4 | 4 | 2 | MBEC50 (established biomass) ([5]; 24 h established biofilms, 24 h treatment, crystal violet): failed to achieve an MBEC50; MIC D14 (E. faecium D14; D14, 18 h): 8 µg/mL; MIC D25 (E. faecium D25; D25, 18 h): 4 µg/mL; MIC E007 (E. faecium E007): 4 µg/mL; MIC D24 (E. faecium D24; D24, 18 h): 4 µg/mL; MIC D29 (E. faecium D29; D29, 18 h): 8 µg/mL; concentration killing 50% of live bacteria cells in established biofilms [8]: > 32 µg/mL; established biomass disrupted [8]: 25–30%; MIC WC176 (E. faecium WC176): 16 µg/mL
